Test results as given in US10575526B2 (priority 2004, dated 2020).

Tests used:
[1] = Glyphosate residue analysis in RR cotton; type: in vivo; conditions: 3 × 1.5 lb, OT/PD/PH, seed
Text: The selection of application rates that are effective for a specific plant pathogen is within the skill of the ordinary agricultural scientist. […] Useful application rates for the glyphosate compositions employed can depend upon all of the above conditions.

[2] = system: Asian soybean rust (Phakopsora pachyrhizi); test: Field observation of Asian soybean rust in glyphosate tolerant soybean; type: in vivo; conditions: Brazil
Description: Asian soybean rust is an aggressive foliar disease of soybean that occurs where soybeans are grown in Asia, and more recently, in southern Africa, Paraguay, Argentina and Brazil. Phakopsora pachyrhizi, the fungus that causes Asian soybean rust, has been found in the continental United States. Glyphosate compositions are used to control, prevent or treat disease in glyphosate tolerant soybean plants (RR) under field conditions. A single application rate of Roundup® (1×=0.75 lbs ae/acre or 0.84 kg ae/ha) or multiple applications are applied times to a rust susceptible variety of soybean. The Roundup® treated plants are not treated with any fungicide and allowed to be naturally infected with Asian soybean rust. In addition, glyphosate-tolerant soybean plants can be grown in a greenhouse and manually infected with spores to induced disease infection.
Rust development is delayed 7-10 days in RR soybean (sprayed at ˜V4 stage), as compared to conventional soy. Rust severity is less in RR soybean as compared to conventional soybean in early season observations.

Asian soybean rust = test: Field trial of glyphosate and Opera fungicide on Asian soybean rust; type: in vivo, Phakopsora pachyrhizi
Description: A field study was conducted to further confirm the greenhouse study. The same cultivars were planted in three replicated plots and treatments as described in the greenhouse study. […] All treatments were effective in preventing disease on RR8045 cultivar.

Q: With `O=C(O)CNCP(=O)(O)O` [glyphosate, N-phosphonomethylglycine] as the molecule, how does the “Gly (ppm)” value [1] read?
A: The value was 1.60 ppm.

Q: What about the rust severity ([2]; RR soybean compared to conventional soybean, early season observations) of the same molecule?
A: Its rust severity is “less”.

Q: What about the “delay of rust development” value ([2]; RR soybean sprayed at ~V4 stage, compared to conventional soy) of the same molecule?
A: The value was 7 to 10 days.

Q: And the “%_disease” value (Asian soybean rust; RR8000, glyp 1X)?
A: The value was 23.3%.

Q: What about the “%_disease” value (Asian soybean rust; RR8000, glyp 2X) of the same molecule?
A: The value was 10.0%.

Q: And the “%_disease” value (Asian soybean rust; RR8045, glyp 1X)?
A: The value was 0.0%.

Q: And the “%_disease” value (Asian soybean rust; RR8045, glyp 2X)?
A: The value was 1.7%.
